The values below come from ChEMBL document CHEMBL1154691, “Synthesis and evaluation of a new generation of orally efficacious benzimidazole-based poly(ADP-ribose) polymerase-1 (PARP-1) inhibitors as anticancer agents” (J Med Chem, 2009).

The structures appear in SMILES notation. pEC50, pKi: −log10 of the molar value.

T1 sequence (P09874 whole entry): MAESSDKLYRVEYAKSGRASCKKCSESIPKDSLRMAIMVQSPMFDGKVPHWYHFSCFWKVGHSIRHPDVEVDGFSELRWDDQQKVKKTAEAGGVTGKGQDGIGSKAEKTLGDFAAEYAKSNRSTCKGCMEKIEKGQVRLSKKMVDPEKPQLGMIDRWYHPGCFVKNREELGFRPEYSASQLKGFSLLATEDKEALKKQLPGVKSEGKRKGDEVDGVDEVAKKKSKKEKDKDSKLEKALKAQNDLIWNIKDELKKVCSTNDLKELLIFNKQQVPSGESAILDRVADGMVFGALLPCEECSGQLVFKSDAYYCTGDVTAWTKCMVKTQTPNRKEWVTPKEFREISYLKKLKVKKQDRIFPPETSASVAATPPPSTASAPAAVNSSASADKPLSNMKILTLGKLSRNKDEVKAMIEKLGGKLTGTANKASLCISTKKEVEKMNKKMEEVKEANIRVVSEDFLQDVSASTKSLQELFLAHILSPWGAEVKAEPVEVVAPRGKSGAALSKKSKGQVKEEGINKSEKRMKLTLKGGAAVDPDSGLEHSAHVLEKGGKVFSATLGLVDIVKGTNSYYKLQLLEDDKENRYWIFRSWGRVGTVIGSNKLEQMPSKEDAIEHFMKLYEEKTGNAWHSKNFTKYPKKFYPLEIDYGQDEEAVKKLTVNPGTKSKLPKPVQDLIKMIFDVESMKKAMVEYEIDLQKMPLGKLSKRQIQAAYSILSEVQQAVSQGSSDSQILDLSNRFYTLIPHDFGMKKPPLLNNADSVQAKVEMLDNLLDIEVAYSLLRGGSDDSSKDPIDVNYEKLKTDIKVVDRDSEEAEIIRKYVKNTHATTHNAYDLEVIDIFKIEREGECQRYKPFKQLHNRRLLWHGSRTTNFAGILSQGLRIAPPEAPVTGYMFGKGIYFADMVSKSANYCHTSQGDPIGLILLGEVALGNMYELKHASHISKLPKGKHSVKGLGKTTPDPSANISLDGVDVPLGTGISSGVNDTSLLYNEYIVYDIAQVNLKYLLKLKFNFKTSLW

One test addresses T1, Poly [ADP-ribose] polymerase 1 (Homo sapiens, UniProt P09874). Nature of the test: Inhibition of PARP1 by scintillation counting.
On to `NC(=O)c1cccc2[nH]c(-c3ccc(-c4csc(N)n4)cc3)nc12`, for which the pKi was 8.66.
Take `NC(=O)c1cccc2[nH]c(-c3ccc(-c4cscn4)cc3)nc12`: the pKi is 8.77.
In turn, `NC(=O)c1cccc2[nH]c(-c3ccc(-c4cnc[nH]4)cc3)nc12` gave a pKi of 8.92.
As for `NC(=O)c1cccc2[nH]c(-c3ccc(-c4n[nH]c(=O)o4)cc3)nc12`, the pKi is 8.80.
`NC(=O)c1cccc2[nH]c(-c3ccc(-c4ccccc4)cc3)nc12` had a pKi of 8.70.
`NC(=O)c1cccc2[nH]c(-c3ccc(-c4cn5ccccc5n4)cc3)nc12` had a pKi of 8.54.
For the compound `NC(=O)c1cccc2[nH]c(-c3ccc(-c4nc(=O)o[nH]4)cc3)nc12`, the pKi was 7.80.
Still for that read-out and setting: the result for `Cn1ccc(-c2ccc(-c3nc4c(C(N)=O)cccc4[nH]3)cc2)n1` reads 8.35; that for `Cc1noc(-c2ccc(-c3nc4c(C(N)=O)cccc4[nH]3)cc2)n1`, 8.40.
For `NC(=O)c1cccc2[nH]c(-c3ccc(-c4nsc(=O)[nH]4)cc3)nc12`, the pKi was 8.28.
Take `Cc1nc(-c2ccc(-c3nc4c(C(N)=O)cccc4[nH]3)cc2)co1`: the pKi was 8.62.

For another test, the target named is T1, Poly [ADP-ribose] polymerase 1. Nature of the test: Inhibition of PARP1 in human C41 cells after 30 mins by cell-based assay.
Compound `NC(=O)c1cccc2[nH]c(-c3ccc(-c4csc(N)n4)cc3)nc12` showed a pEC50 of 7.59.
In turn, `NC(=O)c1cccc2[nH]c(-c3ccc(-c4cscn4)cc3)nc12` gave a pEC50 of 8.43.
Turning to `NC(=O)c1cccc2[nH]c(-c3ccc(-c4cnc[nH]4)cc3)nc12`, the pEC50 is 8.43.
For `NC(=O)c1cccc2[nH]c(-c3ccc(-c4n[nH]c(=O)o4)cc3)nc12`, the pEC50 was 7.19.
On to `NC(=O)c1cccc2[nH]c(-c3ccc(-c4ccccc4)cc3)nc12`, for which the pEC50 is 7.15.
Turning to `NC(=O)c1cccc2[nH]c(-c3ccc(-c4cn5ccccc5n4)cc3)nc12`, the pEC50 was 7.70.
`Cn1ccc(-c2ccc(-c3nc4c(C(N)=O)cccc4[nH]3)cc2)n1` had a pEC50 of 7.70.
`Cc1noc(-c2ccc(-c3nc4c(C(N)=O)cccc4[nH]3)cc2)n1` showed a pEC50 of 8.04.
`NC(=O)c1cccc2[nH]c(-c3ccc(-c4nsc(=O)[nH]4)cc3)nc12` gave a pEC50 of 6.34.
Consider `Cc1nc(-c2ccc(-c3nc4c(C(N)=O)cccc4[nH]3)cc2)co1`, for which the pEC50 is 7.74.
